Assay results reported in patent US10689377B2 (Mirati Therapeutics, Inc., priority 2017, dated 2020).

Experiments:
KRas G12C = KRas G12C (Homo sapiens, UniProt P01116, G12C); assay: Cellular inhibition of KRas G12C measured by Phospho-ERK in NCI-H358 cells; assay type: cell-based; conditions: pERK(Thr202/Tyr204) normalized with GAPDH, NCI-H358 cells, 3 hours; read-out: IC50
Procedure, shortened: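 Following 8-12 h attachment, NCI-H358 cells got serially diluted compound (0.5% DMSO) for 3 hours. Cells were then fixed, permeabilized with cold methanol, and stained for pERK(Thr202/Tyr204) and GAPDH. Ratios were converted to percent of DMSO control, with IC50 obtained by four-parameter regression.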

[1] = In vitro stability in human whole blood; assay type: in vitro ADME; conditions: male, whole blood diluted to 50% with PBS, pH 7.4, human whole blood diluted to 50% with PBS, 5 μM, 37° C., 240-minute incubation, read-out: Compound Half-life
Procedure, shortened: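 Compounds at 5 μM final were incubated at 37° C in male human whole blood diluted to 50% with PBS pH 7.4 (pre-incubated 15 min), sampled at 0, 60 and 240 min. After RBC lysis and acetonitrile quench, analyte/diazepam IS peak area ratios were measured by LC-MS/MS MRM. % remaining versus time zero; t1/2 = ln(2)/km from first-order regression.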

KRas G12C, sequence (P01116 1-188 isoform P01116-2 G12C): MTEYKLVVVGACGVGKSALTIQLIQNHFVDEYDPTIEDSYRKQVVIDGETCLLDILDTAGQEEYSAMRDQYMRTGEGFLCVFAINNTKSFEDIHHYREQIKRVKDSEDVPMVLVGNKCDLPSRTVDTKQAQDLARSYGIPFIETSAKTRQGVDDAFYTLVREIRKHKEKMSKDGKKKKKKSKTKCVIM

- IC50 (KRas G12C): 0.1 to 1000 nM
- half-life at 5 µM [1]: 1000 to 2000 min
Compound: Cc1cccc2cccc(N3CCc4c(nc(OC[C@H]5CCCN5C)nc4N4CCN(C(=O)/C=C/CF)[C@@H](CC#N)C4)C3)c12 [Example 579, 2-[(2S)-1-[(E)-4-Fluorobut-2-enoyl]-4-[7-(8-methyl-1-naphthyl)-2-[[(2R)-1-methylpyrrolidin-2-yl]methoxy]-6,8-dihydro-5H-pyrido[3,4-d]pyrimidin-4-yl]piperazin-2-yl]acetonitrile]
